What was measured:
[1] = test system: Pseudomonas aeruginosa; assay: MIC/MBC against CF isolates (CLSI, alamar blue)
[2] = test system: Acinetobacter baumannii; assay: MIC/MBC against clinical isolates (CLSI, alamar blue)
[3] = test system: Burkholderia cenocepacia; assay: MIC/MBC against CF isolates (CLSI, alamar blue)
[4] = test system: Stenotrophomonas maltophilia; assay: MIC/MBC of nanoemulsions against gram-negative isolates (CLSI, alamar blue); format: cell-based; details: Stenotrophomonas maltophilia (n = 5); nanoemulsions in the presence of 5 mM EDTA
[5] = test system: Burkholderia cepacia; assay: as above; format: cell-based; details: Burkholderia cepacia (n = 5); nanoemulsions in the presence of 5 mM EDTA; in µg/mL
[6] = test system: Proteus mirabilis; assay: as above; format: cell-based; details: Proteus mirabilis (n = 5), nanoemulsions in the presence of 5 mM EDTA
[7] = test system: Stenotrophomonas maltophilia; assay: MIC/MBC against CF isolates (CLSI, alamar blue)
[8] = test system: Escherichia coli; assay: MIC/MBC of nanoemulsions against gram-negative isolates (CLSI, alamar blue); format: cell-based; details: Escherichia coli (n = 5), nanoemulsions in the presence of 5 mM EDTA
[9] = test system: Klebsiella pneumoniae; assay: as above; format: cell-based; details: Klebsiella pneumoniae (n = 5), nanoemulsions in the presence of 5 mM EDTA
[10] = test system: Pseudomonas aeruginosa; assay: as above; format: cell-based; details: Pseudomonas aeruginosa (n = 5)
[11] = test system: Acinetobacter baumannii; assay: as above; format: cell-based; details: Acinetobacter baumannii (n = 5)
[12] = P. aeruginosa, NE with 5 mM EDTA
[13] = A. baumannii, NE with 1 mM EDTA
[14] = B. cenocepacia, NE with 5 mM EDTA
[15] = 11 CF Stenotrophomonas isolates
[16] = CF Stenotrophomonas isolate NB41
[17] = CF Stenotrophomonas isolate NB42
[18] = CF Stenotrophomonas isolate NB43
[19] = CF Stenotrophomonas isolate NB44
[20] = CF Stenotrophomonas isolate NB45
[21] = CF Stenotrophomonas isolate Steno 1
[22] = CF Stenotrophomonas isolate Steno 2
[23] = CF Stenotrophomonas isolate Steno 3
[24] = CF Stenotrophomonas isolate Steno 4
[25] = CF Stenotrophomonas isolate Steno 6
[26] = CF Stenotrophomonas isolate Steno 8
[27] = S. maltophilia, NE with 1 mM EDTA
[28] = Stenotrophomonas, each drug alone
[29] = nanoemulsions in the presence of 5 mM EDTA

Colistin
<=0.5-2 ^: MIC Range [10, 29] | MIC Range [11, 29]
>16 µg/mL: MBC 90 ([2]; 10 Acinetobacter isolates) | MBC ([2]; Acinetobacter isolate NB37) | MBC ([2]; Acinetobacter isolate NB38) | MBC ([2]; Acinetobacter isolate NB40) | MBC 90 ([2]; Acinetobacter, each drug alone)
<=0.5: MIC Range ([8]; in µg/mL) | MIC Range ([9]; in µg/mL)
>8 µg/mL: MBC ([1]; CF Pseudomonas isolate NB1) | MBC ([1]; CF Pseudomonas isolate NB20)
> 4 µg/mL: MIC50 [6]
> 16 µg/mL: MBC 90 [2, 13]
100.0%: % susceptible [10] | % susceptible [11]
16 µg/mL: MIC50 [7, 15] | MIC [7, 18] | MBC [7, 20] | MIC [7, 25] | MIC50 [7, 28]
>32 µg/mL: MBC 50 ([3]; 10 CF Burkholderia isolates) | MBC 90 ([3]; 10 CF Burkholderia isolates) | MIC50 ([3]; 10 CF Burkholderia isolates) | MIC90 ([3]; 10 CF Burkholderia isolates) | MBC 50 ([3]; Burkholderia, each drug alone) | MBC 90 ([3]; Burkholderia, each drug alone) | MIC50 ([3]; Burkholderia, each drug alone) | MIC90 ([3]; Burkholderia, each drug alone) | MBC ([3]; CF Burkholderia isolate NB21) | MIC ([3]; CF Burkholderia isolate NB21) | MBC ([3]; CF Burkholderia isolate NB22) | MIC ([3]; CF Burkholderia isolate NB22) | MBC ([3]; CF Burkholderia isolate NB23) | MIC ([3]; CF Burkholderia isolate NB23) | MBC ([3]; CF Burkholderia isolate NB24) | MIC ([3]; CF Burkholderia isolate NB24) | MBC ([3]; CF Burkholderia isolate NB25) | MIC ([3]; CF Burkholderia isolate NB25) | MBC ([3]; CF Burkholderia isolate NB26) | MBC ([3]; CF Burkholderia isolate NB27) | MIC ([3]; CF Burkholderia isolate NB27) | MBC ([3]; CF Burkholderia isolate NB28b) | MIC ([3]; CF Burkholderia isolate NB28b) | MBC ([3]; CF Burkholderia isolate NB29) | MIC ([3]; CF Burkholderia isolate NB29) | MBC ([3]; CF Burkholderia isolate NB30) | MIC ([3]; CF Burkholderia isolate NB30) | MBC 50 [7, 15] | MBC 90 [7, 15] | MIC90 [7, 15] | MBC [7, 18] | MBC [7, 19] | MBC [7, 21] | MIC [7, 21] | MBC [7, 22] | MBC [7, 23] | MIC [7, 23] | MBC [7, 25] | MBC 50 [7, 28] | MBC 90 [7, 28] | MIC90 [7, 28]
8 µg/mL: MBC 90 ([1]; 20 CF Pseudomonas isolates) | MBC ([1]; CF Pseudomonas isolate NB2) | MBC ([1]; CF Pseudomonas isolate NB3) | MBC ([1]; CF Pseudomonas isolate NB5) | MBC ([1]; CF Pseudomonas isolate NB8) | MBC ([1]; CF Pseudomonas isolate NB9) | MBC ([1]; CF Pseudomonas isolate NB12) | MBC ([1]; CF Pseudomonas isolate NB13) | MBC ([1]; CF Pseudomonas isolate NB15) | MBC 90 [1, 12] | MBC 90 ([1]; second MBC 90 line of the summary, Stenotrophomonas, values equal those of the CF Pseudomonas isolates) | MBC ([2]; Acinetobacter isolate NB32) | MBC ([2]; Acinetobacter isolate NB39) | MBC [7, 17] | MIC [7, 20] | MIC [7, 26]
1 µg/mL: MIC ([1]; CF Pseudomonas isolate NB2) | MIC ([1]; CF Pseudomonas isolate NB3) | MIC ([1]; CF Pseudomonas isolate NB11) | MIC ([1]; CF Pseudomonas isolate NB17) | MIC ([1]; CF Pseudomonas isolate NB18) | MIC50 ([2]; 10 Acinetobacter isolates) | MIC90 ([2]; 10 Acinetobacter isolates) | MIC90 [2, 13] | MBC ([2]; Acinetobacter isolate NB31) | MIC ([2]; Acinetobacter isolate NB31) | MIC ([2]; Acinetobacter isolate NB32) | MIC ([2]; Acinetobacter isolate NB33) | MBC ([2]; Acinetobacter isolate NB34) | MIC ([2]; Acinetobacter isolate NB34) | MIC ([2]; Acinetobacter isolate NB35) | MBC ([2]; Acinetobacter isolate NB36) | MIC ([2]; Acinetobacter isolate NB36) | MIC ([2]; Acinetobacter isolate NB37) | MIC ([2]; Acinetobacter isolate NB38) | MIC ([2]; Acinetobacter isolate NB39) | MIC ([2]; Acinetobacter isolate NB40) | MIC50 ([2]; Acinetobacter, each drug alone) | MIC90 ([2]; Acinetobacter, each drug alone) | MIC [7, 24] | MIC50 [10, 29]
4 µg/mL: MBC 50 ([1]; 20 CF Pseudomonas isolates) | MBC ([1]; CF Pseudomonas isolate NB4) | MBC ([1]; CF Pseudomonas isolate NB6) | MBC ([1]; CF Pseudomonas isolate NB7) | MBC ([1]; CF Pseudomonas isolate NB11) | MIC ([1]; CF Pseudomonas isolate NB12) | MBC ([1]; CF Pseudomonas isolate NB14) | MBC ([1]; CF Pseudomonas isolate NB16) | MBC ([1]; CF Pseudomonas isolate NB17) | MBC ([1]; CF Pseudomonas isolate NB18) | MBC ([1]; CF Pseudomonas isolate NB19) | MBC 50 ([1]; second MBC 50 line of the summary, Stenotrophomonas, values equal those of the CF Pseudomonas isolates) | MBC 50 ([2]; 10 Acinetobacter isolates) | MBC ([2]; Acinetobacter isolate NB33) | MBC ([2]; Acinetobacter isolate NB35) | MBC 50 ([2]; Acinetobacter, each drug alone) | MBC [7, 24]
32 µg/mL: MIC ([3]; CF Burkholderia isolate NB26) | MBC [7, 16] | MIC [7, 19] | MIC [7, 22] | MBC [7, 26]
>4: MIC Range [5] | MIC Range ([6]; in µg/mL)
<=0.5-1 ^: MIC Range [4]
0.0%: % resistant [10] | % resistant [11]
2 µg/mL: MIC50 ([1]; 20 CF Pseudomonas isolates) | MIC90 ([1]; 20 CF Pseudomonas isolates) | MIC ([1]; CF Pseudomonas isolate NB1) | MIC ([1]; CF Pseudomonas isolate NB4) | MIC ([1]; CF Pseudomonas isolate NB5) | MIC ([1]; CF Pseudomonas isolate NB6) | MIC ([1]; CF Pseudomonas isolate NB7) | MIC ([1]; CF Pseudomonas isolate NB8) | MIC ([1]; CF Pseudomonas isolate NB9) | MBC ([1]; CF Pseudomonas isolate NB10) | MIC ([1]; CF Pseudomonas isolate NB10) | MIC ([1]; CF Pseudomonas isolate NB13) | MIC ([1]; CF Pseudomonas isolate NB14) | MIC ([1]; CF Pseudomonas isolate NB15) | MIC ([1]; CF Pseudomonas isolate NB16) | MIC ([1]; CF Pseudomonas isolate NB19) | MIC ([1]; CF Pseudomonas isolate NB20) | MIC90 [1, 12] | MIC [7, 16] | MIC [7, 17]
> 32 µg/mL: MBC 90 [3, 14] | MIC90 [3, 14] | MBC 90 [7, 27] | MIC90 [7, 27]
≤ 0.5 µg/mL: MIC50 [4] | MIC50 [8] | MIC50 [9] | MIC50 [11, 29]

Source: patent US20100092526A1, “NANOEMULSION THERAPEUTIC COMPOSITIONS AND METHODS OF USING THE SAME” (NanoBio Corporation, priority 2008, published 2010)
